Patent US20250163016A1, “PYRIDINE DERIVATIVE, PREPARATION METHOD THEREFOR AND USE THEREOF” (CHENGDU EASTON BIOPHARMACEUTICALS CO., LTD., priority 2022, published 2025)

How the values were obtained:
LSD1 = target: T1, LSD1 (Homo sapiens, UniProt O60341); experiment: LSD1 activity test (HTRF); type: biochemical; settings: H3(1-21)K4 me1-biotin substrate, read-out: IC50, inhibitory activity on LSD1
T1 construct: purchased Active Motif 31432
Method: In this test, a homogeneous time resolved fluorescence (HTRF) technology was utilized, and the inhibitory activity of compounds on LSD1 was detected by adopting a two-step method. The first step was to incubate LSD1, compounds of different concentrations, and a biotin-labeled methylated polypeptide substrate (H3(1-21)K4 me1-biotin) at the room temperature for fixed time.
A corresponding solution with a 1000-fold final concentration was formed by dilution in a 384-well Source plate, and then Echo550 was used for transferring 10 nL to a 384-well reaction plate for being tested.
An inhibition percentage was calculated using a maximum value, a minimum value, and a signal value (maximum value: fluorescence intensity of 5 μL of 2× enzyme solution+5 μL of 2× substrate mixed solution+10 nL of 100% DMSO+10 μL of detection solution; minimum value: fluorescence intensity of 5 μL of 1× reaction solution+5 μL of 2× substrate mixed solution+10 nL of 100% DMSO+10 μL of detection solution; and signal value: fluorescence intensity of 5 μL of 2× enzyme solution+5 μL of 2× substrate mixed solution+10 nL of diluted compound to be tested+10 μL of detection solution), and a calculation formula was as follows: […]
(§1) Using a logarithm of the concentration as an X axis and the percentage inhibition rate as a Y axis, a dose-response curve was fitted using a formula log(inhibitor) vs. response-Variable slope (Four parameters) of analysis software Graphpad Prism 5 to obtain the IC50 value of each compound on the enzyme activity.

Kasumi-1 cells = experiment: Kasumi-1 cell proliferation inhibition test (Celltiter GLO); type: cell-based; settings: Homo sapiens, 168 h, Kasumi-1, 7 days culture
Method: Research had confirmed that LSD1 played a crucial role in the occurrence process of various types of cancers, including small cell lung cancer (SCLC) and acute myeloid leukemia (AML). Therefore, a human acute myeloid leukemia (Kasumi-1) cell line was used to determine the ATP content in cells at different drug concentrations using a Celltiter GLO assay kit, the cell activity was reflected by luminescence intensity, and IC50 values of different compounds on Kasumi-1 cells were calculated using inhibition rates. The inhibitory effects of the compounds in the present application on the proliferation of Kasumi-1 cells were studied to evaluate the anti-tumor efficacy of the tested compounds at the cellular level.
• Day 1 Cells were seeded into the 384-well cell culture plate and placed in a 37° C. 5% CO2 cell incubator to be cultured overnight. • Day 0 The compound to be tested was prepared into a 10 mM mother liquid using DMSO, starting from […], diluted by 3 folds, with 10 concentration points and double duplicate wells. A diluted compound was added into the 384-well cell culture plate and placed in a 37° C. 5% CO2 cell incubator to be cultured for 7 days. The concentration of the DMSO in a cell culture system was 0.1 vol %. • Day 7 Celltiter GLO was added into the 384-well cell culture plate according to a volume ratio of culture system:Celltiter GLO=1:1, light-shielded oscillation was carried out on a plate oscillator for 3 min, then the cell culture plate was placed at the room temperature for 30 min with light shielded, and the plate was read using a multifunctional microplate reader chemical light emitting module.
An inhibition rate was calculated by utilizing luminescence intensity of the above DMSO group (with DMSO added), test group (with the tested compound or a positive control solution added) and blank group (not treating cells), and a calculation formula was as follows: […]
as §1, with “Prism 8” for “Prism 5”, “on Kasumi-1 proliferation inhibition” for “on the enzyme”

[1] = Pharmacokinetics of oral and intravenous administration of rats; type: in vivo; settings: male, rat, plasma, SD rats; for bioavailability: oral, p.o. 5.0 mg/kg vs i.v. 5.0 mg/kg, read-out: F (bioavailability)
Method: With SD rats as tested animals, blood drug concentrations of the compounds of the present application in plasma at different moments after oral administration and intravenous administration to the rats were determined using an LC-MS/MS method, pharmacokinetic parameters and bioavailabilities of the compounds of the present application in the rats were obtained, and pharmacokinetic characteristics of the compounds were studied.
• SD rats, male, weight 180-220 g, 3 rats per group. The animals were fed in an animal house after being purchased, an adaptation period was at least 3 days, and they were used for tests after passing quarantine.
3.2. Solvent: p.o.: 0.5% Sodium Methylcellulose Aqueous Solution
• i.v.: 5% DMSO+10% Solutol+85% Saline
(§2) According to Table 6, each group of rats was given the corresponding tested drugs or positive drugs by gavage, before administration, and 5 min, 15 min, 30 min, 1 h, 2 h, 4 h, 6 h, 8 h, 10 h and 24 h after administration, a fixed volume of blood was collected through eye sockets and placed in an EDTA-K2 anticoagulant tube, centrifuging was carried out at 8000 rpm for 1 min to separate plasma into a centrifuge tube, and the plasma was frozen in a −20° C. refrigerator.
(§3) The plasma at each time point stored at −20° C. was taken out, then acetonitrile was added, after whirling at 1500 revolutions for 2 min, centrifuging was carried out for 15 min (3500 r/min), and a fixed volume of solution supernatant was taken for LC-MS/MS analysis.
(§4) Non-compartment model fitting was carried out on pharmacokinetic behaviors of the tested compounds, and DAS3.31 software was adopted to calculate main pharmacokinetic parameters (T1/2, Tmax, Cmax, AUClast, etc.).

[2] = Pharmacokinetics of oral administration of mice under different solvent conditions; type: in vivo; settings: male, Balb/c, mouse, plasma, 5 mg/kg, p.o. 5.0 mg/kg
Method: With Balb/c mice as tested animals, blood drug concentrations of the compounds of the present application in plasma at different moments after administration of the mice under different solvent conditions were determined using an LC-MS/MS method. Pharmacokinetic parameters of the compounds of the present application in the mice under the different solvent conditions were obtained, and pharmacokinetic characteristics of the compounds were studied.
• Balb/c mice, male, weight 18-22 g, 6 mice per group. The animals were fed in an animal house after being purchased, an adaptation period was at least 3 days, and they were used for tests after passing quarantine.
as §2, with “8,” for “6,”, “mice” for “rats”, “and” for “and 5 min,”
as §3, §4

[3] = iv, i.v. 5.0 mg/kg, 5% DMSO+10% Solutol+85% Saline
[4] = po, p.o. 5.0 mg/kg, 0.5% sodium methylcellulose aqueous solution
[5] = solvent 0.5% sodium methylcellulose aqueous solution
[6] = solvent 5% DMSO + 10% Solutol + 85% Saline

SMILES | IC50 (LSD1) [nM] | IC50 (Kasumi-1 cells) [nM] | AUC(0-t) [1, 3] [ng·h/mL] | Cmax [1, 3] [ng/mL] | Tmax [1, 3] [h] | half-life [1, 3] [h] | bioavailability [1] [%] | AUC(0-t) [1, 4] [ng·h/mL] | Cmax [1, 4] [ng/mL] | Tmax [1, 4] [h] | half-life [1, 4] [h] | AUC(0-t) [2, 5] [ng·h/mL] | Tmax [2, 5] [h] | half-life [2, 5] [h] | AUC(0-t) [2, 6] [ng·h/mL] | Cmax [2, 6] [ng/mL] | Tmax [2, 6] [h] | half-life [2, 6] [h] | Cmax [2, 5] [ng/mL]
CC(C)(O)Cn1nc(F)c2cc(-c3c(C#N)cc(N4CCC(N)CC4)nc3-c3ccc(C#N)c(F)c3)c(F)cc21 [Compound 36, 6-(4-aminopiperid-1-yl)-2-(4-cyano-3-fluorophenyl)-3-(3,6-difluoro-1-(2-hydroxyl-2-methylpropyl)-1H-indazol-5-yl)isonicotinonitrile] | 0.45 |  |  |  |  |  |  |  |  |  |  |  |  |  |  |  |  |  | 
COc1ccc(-c2c(-c3ccc(C#N)c(F)c3)nc(N3CCC(N)CC3)n(C)c2=O)cc1F [CC-90011, reference compound] |  | 3.18 | 906 ± 194 | 895 ± 90.4 | 0.08 | 3.32 ± 0.72 | 32.1 | 299 ± 178 | 49.2 ± 8.71 | 2.67 ± 1.15 | 4.15 ± 0.7 | 965 ± 120 | 3.33 ± 1.15 | 5.01 ± 0.04 | 871 ± 270 | 173 ± 50.9 | 1 | 2.44 ± 0.34 | 
CC(C)(O)Cn1ncc2cc(-c3c(C#N)cc(N4CCC(N)CC4)nc3-c3ccc(C#N)c(F)c3)c(F)cc21 [Compound 16, 6-(4-aminopiperid-1-yl)-2-(4-cyano-3-fluorophenyl)-3-(6-fluoro-1-(2-hydroxyl-2-methylpropyl)-1H-indazol-5-yl)isonicotinonitrile] | 0.23 | 0.59 | 1490 ± 157 | 765 ± 181 | 0.08 | 5.61 ± 1.29 | 46.2 | 693 ± 248 | 75.2 ± 20.3 | 4 | 4.73 ± 0.22 | 3220 ± 1510 | 3.33 ± 1.15 | 3.99 ± 0.59 | 2420 ± 123 | 612 ± 111 | 2.67 ± 1.15 | 5.52 ± 0.67 | 895 ± 499
